# Test results taken from PMC4777480, “Trichoderma harzianum Produces a New Thermally Stable Acid Phosphatase, with Potential for Biotechnological Application” (PLoS ONE, 2016).
# T1: ACPase II (Trichoderma harzianum, UniProt A0A2T3ZY58)
# T1 construct: gene M431DRAFT_96728
# T1 sequence (A0A2T3ZY58 21-556): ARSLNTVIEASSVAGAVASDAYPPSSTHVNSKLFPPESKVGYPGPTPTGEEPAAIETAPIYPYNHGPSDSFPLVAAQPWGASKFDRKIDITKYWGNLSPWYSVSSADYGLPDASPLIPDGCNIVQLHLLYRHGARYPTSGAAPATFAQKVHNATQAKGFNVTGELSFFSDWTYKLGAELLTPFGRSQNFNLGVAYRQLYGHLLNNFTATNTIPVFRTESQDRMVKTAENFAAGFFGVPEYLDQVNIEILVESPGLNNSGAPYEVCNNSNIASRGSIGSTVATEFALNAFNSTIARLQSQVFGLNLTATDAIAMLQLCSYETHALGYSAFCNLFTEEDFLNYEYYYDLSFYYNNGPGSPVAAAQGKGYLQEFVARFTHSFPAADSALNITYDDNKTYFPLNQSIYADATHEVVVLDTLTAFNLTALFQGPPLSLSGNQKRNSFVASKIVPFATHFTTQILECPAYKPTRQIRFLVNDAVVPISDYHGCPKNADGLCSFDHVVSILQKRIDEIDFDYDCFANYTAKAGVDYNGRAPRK
# B1: ACPase II (acid phosphatase II) from Trichoderma harzianum (enzyme)
# chain: T1 sequence (A0A2T3ZY58 21-556)
# modifications: glycoprotein, approximately 30% carbohydrate (N- and O-glycosylation)
# Experiments:
# ACPase II = biological target: T1, ACPase II; conditions: 5000 µM; 5 mM inorganic phosphate, 60°C; Table 3 gives residual activity instead
# [1] = biological target: the molecule itself; assay: SEC + other: dynamic light scattering; data not shown; ACPase II in solution, eluted in the void volume; hydrodynamic radius 14.3 nm, mass 326 kDa; conditions of the light scattering not told
Molecule,ACPase II (ACPase II),stoichiometry N [1]
O=P(O)(O)O [sodium phosphate],65.0 ± 2.0%,
B1,,4
